SMILES strings stand for the structures. The source made the active and inactive calls. The calls are words filed in the database; no cut-off is given here.

For assay [1], the target named is Mitogen-activated protein kinase 14 (Homo sapiens, UniProt Q16539). In words: Inhibition of p38alpha Lys2 labeling site in human Huh-7 cells at 1 uM by KiNativ Profiling analysis relative to control. It is filed as cell-based.
In assay [2] the target is Serine/threonine-protein kinase MARK2 (Homo sapiens) (UniProt Q7KZI7). In words: Inhibition of MARK2 Lys2 labeling site harbouring FIVHRDLKAENLLLDADMNIK in human Huh-7 cell lysate at 1 uM by KiNativ Profiling analysis relative to control. It is filed as subcellular.
For assay [3], the target named is T1, Serine/threonine-protein kinase greatwall (Homo sapiens) (UniProt Q96GX5).
T1 sequence (whole entry): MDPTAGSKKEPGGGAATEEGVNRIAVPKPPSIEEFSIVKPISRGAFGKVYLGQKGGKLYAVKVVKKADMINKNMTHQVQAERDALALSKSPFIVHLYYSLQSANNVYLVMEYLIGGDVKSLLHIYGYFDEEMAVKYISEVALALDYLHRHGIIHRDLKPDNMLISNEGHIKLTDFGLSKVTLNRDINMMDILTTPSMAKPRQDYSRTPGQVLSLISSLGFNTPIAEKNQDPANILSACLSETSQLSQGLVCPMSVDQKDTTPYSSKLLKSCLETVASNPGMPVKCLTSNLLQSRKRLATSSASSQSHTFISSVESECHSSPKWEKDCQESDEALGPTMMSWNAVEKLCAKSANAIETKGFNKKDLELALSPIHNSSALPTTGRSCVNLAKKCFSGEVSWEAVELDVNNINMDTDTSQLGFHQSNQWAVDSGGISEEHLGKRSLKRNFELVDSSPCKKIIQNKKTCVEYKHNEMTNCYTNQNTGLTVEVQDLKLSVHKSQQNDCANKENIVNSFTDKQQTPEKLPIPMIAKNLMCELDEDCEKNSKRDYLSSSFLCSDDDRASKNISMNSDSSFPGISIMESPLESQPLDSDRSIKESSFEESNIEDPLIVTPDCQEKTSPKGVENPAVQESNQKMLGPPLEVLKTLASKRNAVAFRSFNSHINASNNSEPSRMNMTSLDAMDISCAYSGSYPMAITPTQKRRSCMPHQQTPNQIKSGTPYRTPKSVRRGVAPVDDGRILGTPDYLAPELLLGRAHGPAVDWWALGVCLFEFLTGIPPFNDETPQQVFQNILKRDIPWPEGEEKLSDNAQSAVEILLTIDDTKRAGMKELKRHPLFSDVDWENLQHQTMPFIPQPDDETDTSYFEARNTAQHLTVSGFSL
In words: Inhibition of MASTL Lys2 labeling site in human Huh-7 cells at 1 uM by KiNativ Profiling analysis relative to control. In kind it is cell-based.

The target in assay [4] is Vascular endothelial growth factor receptor 3 (Homo sapiens) (UniProt P35916). The experiment in a line: Inhibition of FLT4 (unknown origin) at 1 uM by Ambit Kinomescan binding assay relative to control; values are per cent of control.
For assay [5], the target named is Mitogen-activated protein kinase kinase kinase kinase 1 (Homo sapiens) (UniProt Q92918). In words: Inhibition of HPK1 (unknown origin) at 1 uM by Ambit Kinomescan binding assay relative to control; values are per cent of control.
In assay [6] the target is DNA-PK/Ku70/Ku85 (Homo sapiens) (UniProt P78527+P12956+P13010). In words: Inhibition of DNAPK ATP labeling site harbouring KGGSWIQEINVAEK in human A-375 cells at 0.05 uM by KiNativ Profiling analysis relative to control. In kind it is cell-based.
The target of assay [7] is T2, Mitogen-activated protein kinase kinase kinase kinase 2 (Homo sapiens) (UniProt Q12851).
T2 sequence (whole entry): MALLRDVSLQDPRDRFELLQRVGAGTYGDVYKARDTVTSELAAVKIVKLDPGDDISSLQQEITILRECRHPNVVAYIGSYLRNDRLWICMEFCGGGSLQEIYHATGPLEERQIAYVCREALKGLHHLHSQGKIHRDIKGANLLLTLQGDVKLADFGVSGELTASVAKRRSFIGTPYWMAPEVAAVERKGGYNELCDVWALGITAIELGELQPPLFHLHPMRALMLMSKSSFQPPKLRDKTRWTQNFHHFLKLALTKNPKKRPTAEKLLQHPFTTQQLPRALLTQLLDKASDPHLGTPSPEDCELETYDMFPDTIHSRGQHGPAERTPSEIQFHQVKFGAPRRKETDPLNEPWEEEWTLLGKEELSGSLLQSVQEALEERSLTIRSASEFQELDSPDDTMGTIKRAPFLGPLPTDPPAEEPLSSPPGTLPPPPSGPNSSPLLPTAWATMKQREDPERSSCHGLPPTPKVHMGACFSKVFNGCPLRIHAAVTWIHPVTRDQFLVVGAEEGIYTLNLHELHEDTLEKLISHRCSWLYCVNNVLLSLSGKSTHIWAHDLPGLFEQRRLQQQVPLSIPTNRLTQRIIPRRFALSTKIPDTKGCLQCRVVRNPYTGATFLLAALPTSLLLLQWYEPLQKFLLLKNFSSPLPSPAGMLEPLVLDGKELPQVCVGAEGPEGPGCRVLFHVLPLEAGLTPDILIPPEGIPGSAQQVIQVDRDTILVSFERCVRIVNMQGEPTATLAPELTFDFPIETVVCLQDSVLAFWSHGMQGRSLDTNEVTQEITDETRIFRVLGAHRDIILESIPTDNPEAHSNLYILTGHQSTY
The experiment in a line: Inhibition of MAP4K2 Lys2 labeling site in human A-375 cells at 0.5 uM by KiNativ Profiling analysis relative to control. It is filed as cell-based.

Assay [8] concerns the target Death-associated protein kinase 3 (Homo sapiens) (UniProt O43293). In words: Inhibition of DAPK3 (unknown origin) at 10 uM by Ambit Kinomescan binding assay.
Another assay relates to 293-IL-1R. The experiment in a line: Inhibition of IL-1alpha induced p105 phosphorylation level in human 293-IL-1R cells preincubated for 1 hr followed by IL-1 alpha stimulation and measured after 30 mins by Western blot analysis. In kind it is functional, cell-based. As to conditions: dose 0.01-10 µM. (In general: In western blotting, separated proteins are transferred to a membrane and probed.)

In assay [9] the target is Serine/threonine-protein kinase TNNI3K (Homo sapiens) (UniProt Q59H18). The experiment in a line: Inhibition of TNNI3K (unknown origin) at 10 uM by Ambit Kinomescan binding assay relative to control; values are per cent of control.
Assay [10] addresses Membrane-associated tyrosine- and threonine-specific cdc2-inhibitory kinase (Homo sapiens) (UniProt Q99640). The experiment in a line: Inhibition of PKMYT1 (unknown origin) at 10 uM by Ambit Kinomescan binding assay.
The target of assay [11] is Tyrosine-protein kinase receptor TYRO3 (Homo sapiens) (UniProt Q06418). In words: Inhibition of TYRO3 (unknown origin) at 10 uM by Ambit Kinomescan binding assay.
For assay [12], the target named is Serine/threonine-protein kinase B-raf (Homo sapiens, UniProt P15056). The experiment in a line: Inhibition of BRAF (unknown origin) at 10 uM by Ambit Kinomescan binding assay relative to control.
Assay [13] concerns the target 1-phosphatidylinositol 3-phosphate 5-kinase (Homo sapiens) (UniProt Q9Y2I7). The experiment in a line: Inhibition of PIP5K3 ATP labeling site in human Huh-7 cells at 1 uM by KiNativ Profiling analysis relative to control. In kind it is cell-based.

Sequence of Mitogen-activated protein kinase kinase kinase kinase 1 (Homo sapiens) (Q92918 whole entry, looked up): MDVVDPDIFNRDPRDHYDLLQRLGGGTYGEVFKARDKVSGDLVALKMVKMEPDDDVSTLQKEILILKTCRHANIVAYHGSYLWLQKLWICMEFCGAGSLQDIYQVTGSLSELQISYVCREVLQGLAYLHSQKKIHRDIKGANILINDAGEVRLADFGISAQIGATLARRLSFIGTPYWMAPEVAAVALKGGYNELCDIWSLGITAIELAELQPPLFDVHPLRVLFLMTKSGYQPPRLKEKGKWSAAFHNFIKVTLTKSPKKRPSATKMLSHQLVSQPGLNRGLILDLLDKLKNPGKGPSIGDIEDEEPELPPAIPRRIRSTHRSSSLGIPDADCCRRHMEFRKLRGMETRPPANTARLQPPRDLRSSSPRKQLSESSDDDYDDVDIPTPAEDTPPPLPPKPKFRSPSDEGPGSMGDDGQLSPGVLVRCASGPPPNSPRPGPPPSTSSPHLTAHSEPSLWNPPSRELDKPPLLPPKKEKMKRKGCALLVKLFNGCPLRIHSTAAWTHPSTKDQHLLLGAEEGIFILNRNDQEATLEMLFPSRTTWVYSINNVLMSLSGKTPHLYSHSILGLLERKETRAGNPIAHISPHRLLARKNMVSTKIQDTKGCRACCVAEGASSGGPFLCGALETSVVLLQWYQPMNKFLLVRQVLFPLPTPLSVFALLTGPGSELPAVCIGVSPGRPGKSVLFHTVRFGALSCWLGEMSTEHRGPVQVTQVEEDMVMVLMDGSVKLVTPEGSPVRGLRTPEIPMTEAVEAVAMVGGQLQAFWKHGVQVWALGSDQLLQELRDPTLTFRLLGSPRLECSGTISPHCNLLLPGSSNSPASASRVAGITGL
Sequence of Mitogen-activated protein kinase 14 (Q16539 whole entry): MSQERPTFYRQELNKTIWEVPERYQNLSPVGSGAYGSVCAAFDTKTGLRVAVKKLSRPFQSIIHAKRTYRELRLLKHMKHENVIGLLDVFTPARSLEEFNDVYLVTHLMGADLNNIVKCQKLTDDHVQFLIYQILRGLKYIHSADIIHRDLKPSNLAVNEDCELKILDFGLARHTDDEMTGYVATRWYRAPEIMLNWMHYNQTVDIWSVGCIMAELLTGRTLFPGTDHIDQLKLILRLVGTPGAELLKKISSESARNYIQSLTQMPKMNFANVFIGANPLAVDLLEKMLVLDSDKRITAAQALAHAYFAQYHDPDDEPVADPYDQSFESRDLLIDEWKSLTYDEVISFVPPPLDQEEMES
Sequence of Serine/threonine-protein kinase MARK2 (Homo sapiens) (Q7KZI7 whole entry): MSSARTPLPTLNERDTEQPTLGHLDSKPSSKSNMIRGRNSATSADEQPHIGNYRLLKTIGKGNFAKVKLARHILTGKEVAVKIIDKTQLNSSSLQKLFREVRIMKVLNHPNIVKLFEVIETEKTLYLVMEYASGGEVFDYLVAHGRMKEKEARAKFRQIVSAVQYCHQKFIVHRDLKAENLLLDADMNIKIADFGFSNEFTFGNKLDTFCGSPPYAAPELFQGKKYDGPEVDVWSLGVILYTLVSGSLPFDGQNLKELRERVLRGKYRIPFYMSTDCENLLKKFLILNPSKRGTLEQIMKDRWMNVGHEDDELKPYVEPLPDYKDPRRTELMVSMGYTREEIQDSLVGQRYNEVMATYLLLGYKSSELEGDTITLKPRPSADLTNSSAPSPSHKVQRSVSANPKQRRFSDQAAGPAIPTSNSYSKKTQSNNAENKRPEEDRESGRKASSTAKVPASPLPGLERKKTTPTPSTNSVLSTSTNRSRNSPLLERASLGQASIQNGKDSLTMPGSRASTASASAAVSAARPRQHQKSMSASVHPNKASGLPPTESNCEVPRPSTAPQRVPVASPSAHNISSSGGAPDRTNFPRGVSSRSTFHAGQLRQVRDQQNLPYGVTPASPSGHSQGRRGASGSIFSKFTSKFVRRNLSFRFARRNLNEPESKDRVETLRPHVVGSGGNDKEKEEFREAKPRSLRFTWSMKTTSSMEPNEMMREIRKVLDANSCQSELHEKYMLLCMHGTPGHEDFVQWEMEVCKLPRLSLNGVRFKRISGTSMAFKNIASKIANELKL
Sequence of Serine/threonine-protein kinase B-raf (P15056 whole entry): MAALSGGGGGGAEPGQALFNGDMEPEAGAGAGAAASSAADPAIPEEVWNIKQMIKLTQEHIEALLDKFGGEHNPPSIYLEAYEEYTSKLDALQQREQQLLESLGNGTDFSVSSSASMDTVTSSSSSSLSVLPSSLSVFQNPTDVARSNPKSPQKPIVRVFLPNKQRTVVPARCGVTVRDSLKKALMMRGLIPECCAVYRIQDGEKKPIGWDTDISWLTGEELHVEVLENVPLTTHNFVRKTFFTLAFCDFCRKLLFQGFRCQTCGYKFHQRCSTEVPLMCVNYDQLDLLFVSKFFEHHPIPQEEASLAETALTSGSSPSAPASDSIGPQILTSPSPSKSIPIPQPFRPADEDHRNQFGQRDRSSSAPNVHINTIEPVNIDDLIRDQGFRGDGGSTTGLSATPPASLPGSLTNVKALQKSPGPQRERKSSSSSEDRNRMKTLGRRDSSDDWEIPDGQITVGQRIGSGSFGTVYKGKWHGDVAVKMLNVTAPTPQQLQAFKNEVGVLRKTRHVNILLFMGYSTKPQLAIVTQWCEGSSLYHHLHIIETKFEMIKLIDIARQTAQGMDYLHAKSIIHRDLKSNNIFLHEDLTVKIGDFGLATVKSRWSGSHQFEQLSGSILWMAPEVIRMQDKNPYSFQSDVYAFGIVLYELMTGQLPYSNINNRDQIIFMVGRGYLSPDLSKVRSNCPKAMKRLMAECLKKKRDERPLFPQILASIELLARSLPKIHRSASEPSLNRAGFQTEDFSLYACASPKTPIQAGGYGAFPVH
Sequence of Serine/threonine-protein kinase TNNI3K (Homo sapiens) (Q59H18 whole entry): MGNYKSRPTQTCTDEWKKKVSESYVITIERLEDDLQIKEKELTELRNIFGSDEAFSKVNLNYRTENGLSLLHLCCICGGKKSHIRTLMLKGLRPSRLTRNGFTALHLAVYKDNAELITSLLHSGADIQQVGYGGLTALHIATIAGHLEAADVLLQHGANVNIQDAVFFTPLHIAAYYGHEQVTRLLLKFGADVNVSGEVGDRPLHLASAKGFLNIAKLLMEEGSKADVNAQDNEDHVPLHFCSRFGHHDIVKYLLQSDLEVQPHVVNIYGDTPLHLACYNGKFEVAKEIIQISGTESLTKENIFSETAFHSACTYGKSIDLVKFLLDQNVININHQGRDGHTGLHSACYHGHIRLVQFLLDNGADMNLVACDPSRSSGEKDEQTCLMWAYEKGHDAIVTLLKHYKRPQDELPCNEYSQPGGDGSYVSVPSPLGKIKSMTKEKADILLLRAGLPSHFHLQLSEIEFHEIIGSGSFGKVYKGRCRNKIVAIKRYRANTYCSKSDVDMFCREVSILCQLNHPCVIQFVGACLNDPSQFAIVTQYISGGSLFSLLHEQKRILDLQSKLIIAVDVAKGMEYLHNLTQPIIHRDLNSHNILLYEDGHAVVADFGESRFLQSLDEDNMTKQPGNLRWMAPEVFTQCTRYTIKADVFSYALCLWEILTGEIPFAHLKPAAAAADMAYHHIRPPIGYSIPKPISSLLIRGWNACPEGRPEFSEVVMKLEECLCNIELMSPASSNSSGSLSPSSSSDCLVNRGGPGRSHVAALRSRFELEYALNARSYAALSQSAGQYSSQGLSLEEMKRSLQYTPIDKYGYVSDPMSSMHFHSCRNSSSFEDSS
Sequence of Membrane-associated tyrosine- and threonine-specific cdc2-inhibitory kinase (Homo sapiens) (Q99640 whole entry): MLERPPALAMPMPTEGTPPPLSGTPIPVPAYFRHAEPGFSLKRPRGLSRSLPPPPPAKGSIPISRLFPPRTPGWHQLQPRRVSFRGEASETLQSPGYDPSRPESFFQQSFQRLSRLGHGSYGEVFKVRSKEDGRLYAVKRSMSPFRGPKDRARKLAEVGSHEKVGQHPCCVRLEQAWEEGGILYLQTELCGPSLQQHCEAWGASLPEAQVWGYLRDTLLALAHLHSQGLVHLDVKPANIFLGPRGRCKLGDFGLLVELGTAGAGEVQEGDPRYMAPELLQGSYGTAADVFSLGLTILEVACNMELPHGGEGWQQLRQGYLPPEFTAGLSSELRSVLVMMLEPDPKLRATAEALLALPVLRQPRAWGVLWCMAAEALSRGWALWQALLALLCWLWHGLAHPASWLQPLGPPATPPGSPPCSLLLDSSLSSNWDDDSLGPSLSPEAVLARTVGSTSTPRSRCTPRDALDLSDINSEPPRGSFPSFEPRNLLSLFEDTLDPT
Sequence of Death-associated protein kinase 3 (Homo sapiens) (O43293 whole entry, looked up): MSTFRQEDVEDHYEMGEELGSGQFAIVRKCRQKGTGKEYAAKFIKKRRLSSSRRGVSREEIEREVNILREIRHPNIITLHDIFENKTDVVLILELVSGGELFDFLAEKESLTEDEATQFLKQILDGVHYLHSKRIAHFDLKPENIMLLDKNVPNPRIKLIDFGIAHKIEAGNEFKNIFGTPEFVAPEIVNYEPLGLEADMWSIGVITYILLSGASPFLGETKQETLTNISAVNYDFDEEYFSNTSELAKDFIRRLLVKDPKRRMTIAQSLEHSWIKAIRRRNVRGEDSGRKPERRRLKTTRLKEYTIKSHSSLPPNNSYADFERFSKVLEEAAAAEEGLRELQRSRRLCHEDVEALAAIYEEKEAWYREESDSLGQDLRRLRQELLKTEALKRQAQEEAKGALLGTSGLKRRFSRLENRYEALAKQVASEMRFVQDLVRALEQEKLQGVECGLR

As for `CNc1cc(Oc2cc(C(=O)Nc3cc(N4CCN(C)CC4)cc(C(F)(F)F)c3)ccc2C)ncn1`, the inhibition was 22.6% in assay [1], 6% in [2] and -7.3% in assay [3].
In the case of `CCN1CCN(Cc2ccc(NC(=O)c3ccc(C)c(/C=C/c4cnc5[nH]ccc5c4OC)c3)cc2C(F)(F)F)CC1`, the residual activity in assay [4] worked out at 26%; in assay [5], 0.55%. In addition, in [6], the inhibition was determined as 17.7%.
As for `CCN1CCN(Cc2ccc(NC(=O)c3ccc(C)c(Oc4ccnc5[nH]ccc45)c3)cc2C(F)(F)F)CC1`, the inhibition in assay [7] was 91.1%; in the assay on 293-IL-1R, “Dose-Dependent Effect”; in [12] it was 9.1%; in [13] it was -3.1%. For the same compound, the inhibition result in assay [8], in [10] and in [11] was “inactive” each time. In assay [9], the residual activity stood at 4.8%.

As a reminder, the inhibition is the relative decrease from the control value, in per cent.

The values above are taken from ChEMBL document CHEMBL5696442, “Discovery of type II inhibitors of TGFβ-activated kinase 1 (TAK1) and mitogen-activated protein kinase kinase kinase kinase 2 (MAP4K2)” (J Med Chem, 2015).
